Source: patent US10994016B2, “Graphene oxide mediated cellular delivery of gadolinium-labeled molecules” (Northwestern University, priority 2015, dated 2021)
Values joined by “and” are separate entries in the source; they are usually repeats but may differ in a detail not shown here. Equal values may be shown once.

Tests used:
HeLa cells = assay: Cellular delivery studies with and without GO co-incubation, HeLa; type: cell-based; settings: for Gd content (fmol/cell): 24 h, replicate values; for Gd content (fmol/cell), Outliers: values removed as outliers (Chauvenet's criterion, * experimenter judgment)
Experimental: ICP-MS Samples were prepared in 15-mL conical tubes by adding ACS reagent grade nitric acid (70%), followed by incubation at 70° C. overnight to allow for complete sample digestion. The effectiveness of this digestion protocol was previously validated for GO. After incubation, a multi-element internal standard (containing Bi, Ho, In, Li, Sc, Tb, and Y, Inorganic Ventures, Christiansburg, Va.) and milli-Q water (18.2 MΩ·cm) were added to produce a final sample of 3% (v/v) nitric acid and 5 ng/mL internal standard.
ICP-MS was performed on a computer-controlled (Plasmalab software) Thermo X series II ICP-MS (Thermo Fisher Scientific, Waltham, Mass., USA) operating in standard mode equipped with an ESI SC-2 autosampler (Omaha, Nebr., USA). Each sample was acquired using 1 survey run (10 sweeps) and 3 main (peak jumping) runs (100 sweeps). The isotopes selected for analysis were Gd with In and Ho isotopes selected as internal standards for data interpolation. Instrument performance is optimized daily through an autotune followed by verification via a performance report (passing manufacturer specifications). Instrument calibration was accomplished by preparing individual-element Gd standards (Inorganic Ventures, Christiansburg, Va., USA) using concentrations of 0.78125, 1.5625, 3.125, 6.25, 12.50, 25.00, 50.00, 100.0, and 200.0 ng/mL containing 3.0% nitric acid (v/v) and 5.0 ng/mL of multi-element internal standard.
Dulbecco's modified phosphate buffered saline (DPBS), media, and dissociation reagents were purchased from Life Technologies (Carlsbad, Calif.). CorningBrand® cell culture consumables (flasks, plates, etc.) and sera were purchased from VWR Scientific (Radnor, Pa.). HeLa cells (ATCC® CCL-2™) and KB cells (ATCC® CCL-17™) were purchased from the American Type Culture Collection (ATCC, Manassas, Va.) and cultured in phenol red-free minimum essential media (MEM) supplemented with 10% fetal bovine serum (FBS). Prior to all experiments, cells were plated and allowed to incubate for 24 hours before dosing. Cells were harvested with 0.25% TrypLE for 5 minutes at 37° C. in a 5.0% CO2 incubator. For sterilization, all Gd(III)-labeled molecules were filtered with 0.2 μm sterile filters prior to concentration determination and storage at 4° C. GO was used as prepared without further sterilization. […] Cells were grown in a humidified incubator operating at 37° C. and 5.0% CO2.
Cell counting was conducted using a Guava EasyCyte Mini Personal Cell Analyzer (EMD Millipore, Billerica, Mass.). After cell harvesting, an aliquot (50 μL) of the cell suspensions was mixed with Guava ViaCount reagent (150 μL) and allowed to stain at room temperature for at least 5 minutes. The dilution factor of 4 was determined based upon optimum machine performance (20-150 cells/μL). After vortexing for 10 sec, stained cells were counted using a Guava EasyCyte Mini Personal Cell Analyzer (PCA) using the ViaCount software module. For each sample, 1000 events were acquired. Gating of live/dead and cell/debris classifications were performed manually by the operator.
Cellular delivery studies were performed with HeLa and KB cells. HeLa and KB were plated at a cell density of approximately 25,000 and 50,000 cells per well, respectively, in a 24-well plate as counted by a hemocytometer. Stock solutions of 1-14 (1 mM), 150 nm GO (100 μg/mL), and 1500 nm GO (100 μg/mL) were prepared using sterile Milli-Q water. Prior to dosing, 80 μL ([…]) of each GO (150 nm and 1500 nm) and 80 μL (80 nmol) of each Gd(III)-labeled molecule (1-14) were mixed and allowed to adsorb for at least 15 minutes. 150 μL Gd(III)-GO solutions were added to 250 μL media to give a final concentration of 188 μM Gd and 18.8 μg/mL GO. Cells were incubated with the mixture of Gd(III)-labeled molecules and GO for […]. To harvest, cells were rinsed in-plate three times with 500 μL PBS and trypsinized using 100 μL 0.25% TrypLE. […]

[1] = Octanol-water partition coefficients; type: physicochemical; settings: errors show SEM; Gd in each layer by ICP-MS
Experimental: Approximately 1 mg of each compound was dissolved in 1 mL of a 1:1 mixture of water/1-octanol. After shaking the sample tube vigorously for 30 s, the tube was placed on a rotator for gentle mixing over 6 h. The tube was then removed from the rotator and allowed to sit for 12 h to ensure complete separation of the aqueous and organic phases. […] Once separation was complete, 10 μL was removed from each layer to determine the concentration of Gd by ICP-MS. The partition coefficient was calculated from the following equation: log10P=log10(Co/Cw), where log10 P is the logarithm of the partition coefficient, Co is the concentration of Gd in the 1-octanol layer, and Cw is the concentration of Gd in the water layer.

[2] = +150 nm GO co-incubation, 188 μM Gd(III), 18.8 μg/mL GO
[3] = +1500 nm GO co-incubation, 188 μM Gd(III), 18.8 μg/mL GO
[4] = molecule alone, without GO, 188 μM Gd(III), 24-well plate

Compound | Gd content (fmol/cell) (HeLa cells; [2]) | Gd content (fmol/cell), Outliers (HeLa cells; +150 nm GO) | Gd content (fmol/cell) (HeLa cells; [3]) | Gd content (fmol/cell), Outliers (HeLa cells; +1500 nm GO) | Gd content (fmol/cell) (HeLa cells; [4]) | Water-Octanol LogP [1] | Gd content (fmol/cell), Outliers (HeLa cells; molecule alone, without GO) | Delivery enhancement without adsorption time (HeLa cells; 1500 nm GO, 188 μM Gd(III), 18.8 μg/mL GO)
CCCCc1cn(CC(O)CN2CCN(CC(=O)[O-])CCN(CC(=O)[O-])CCN(CC(=O)[O-])CC2)nn1.[Gd+3] (stereo not shown) [Molecule 1] | 0.63 fmol/cell (2×) and 0.44 fmol/cell and 0.58 fmol/cell and 0.57 fmol/cell (2×) and 0.76 fmol/cell | 1.11 fmol/cell and 1.24 fmol/cell | 0.59 fmol/cell and 0.58 fmol/cell and 0.39 fmol/cell and 0.77 fmol/cell and 0.86 fmol/cell and 0.76 fmol/cell and 0.64 fmol/cell | 1.18 fmol/cell and 1.45 fmol/cell | 0.62 fmol/cell and 0.67 fmol/cell and 0.36 fmol/cell and 0.63 fmol/cell and 0.40 fmol/cell | −2.18 ± 0.02 | – | –
O=C([O-])CN1CCN(CC(=O)[O-])CCN(CC(O)Cn2cc(CCCO)nn2)CCN(CC(=O)[O-])CC1.[Gd+3] (stereo not shown) [Molecule 2] | 0.84 fmol/cell and 0.81 fmol/cell and 0.90 fmol/cell | – | 0.59 fmol/cell and 0.88 fmol/cell and 0.70 fmol/cell | – | 0.30 fmol/cell and 0.38 fmol/cell and 0.36 fmol/cell | −3.98 ± 0.06 | – | –
O=C([O-])CN1CCN(CC(=O)[O-])CCN(CC(O)Cn2cc(CCCOP(=O)(O)O)nn2)CCN(CC(=O)[O-])CC1.[Gd+3] (stereo not shown) [Molecule 3] | 1.84 fmol/cell and 1.36 fmol/cell and 1.29 fmol/cell | – | 1.61 fmol/cell and 1.64 fmol/cell and 1.41 fmol/cell | – | 0.74 fmol/cell and 0.90 fmol/cell and 0.65 fmol/cell | −4.05 ± 0.17 | – | –
O=C([O-])CN1CCN(CC(=O)[O-])CCN(CC(O)Cn2cc(CCCC(=O)O)nn2)CCN(CC(=O)[O-])CC1.[Gd+3] (stereo not shown) [Molecule 4] | 0.31 fmol/cell and 0.23 fmol/cell (2×) and 0.33 fmol/cell and 0.25 fmol/cell and 0.13 fmol/cell and 0.16 fmol/cell and 0.17 fmol/cell and 0.20 fmol/cell and 0.29 fmol/cell and 0.22 fmol/cell | 0.66 fmol/cell and 0.76 fmol/cell and 0.62 fmol/cell | 0.58 fmol/cell and 0.27 fmol/cell and 0.33 fmol/cell and 0.30 fmol/cell and 0.31 fmol/cell and 0.53 fmol/cell | 1.00 fmol/cell | 0.51 fmol/cell and 0.26 fmol/cell and 0.25 fmol/cell and 0.23 fmol/cell and 0.34 fmol/cell and 0.36 fmol/cell | −3.44 ± 0.28 | 0.76 fmol/cell | –
C[N+](C)(C)CCCc1cn(CC(O)CN2CCN(CC(=O)[O-])CCN(CC(=O)[O-])CCN(CC(=O)[O-])CC2)nn1.[Gd+3] (stereo not shown) [Molecule 5] | 0.37 fmol/cell and 0.29 fmol/cell and 0.42 fmol/cell and 0.43 fmol/cell | 2.73 fmol/cell | 0.42 fmol/cell and 0.36 fmol/cell and 0.32 fmol/cell | – | 0.52 fmol/cell and 0.29 fmol/cell and 0.25 fmol/cell and 0.35 fmol/cell and 0.37 fmol/cell | −4.33 ± 0.46 | – | –
O=C([O-])CN1CCN(CC(=O)[O-])CCN(CC(O)Cn2cc(CCCc3ccccc3)nn2)CCN(CC(=O)[O-])CC1.[Gd+3] (stereo not shown) [Molecule 6] | 1.13 fmol/cell and 0.53 fmol/cell and 0.68 fmol/cell and 0.73 fmol/cell (2×) and 0.47 fmol/cell and 0.87 fmol/cell | 3.26 fmol/cell | 1.29 fmol/cell and 1.24 fmol/cell and 0.67 fmol/cell and 0.64 fmol/cell | 4.12 fmol/cell | 0.78 fmol/cell and 0.72 fmol/cell and 0.40 fmol/cell and 0.47 fmol/cell and 0.58 fmol/cell | −1.26 ± 0.08 | – | –
O=C([O-])CN1CCNCCN(CC(=O)[O-])CCN(CC(=O)[O-])CC1.[Gd+3] [Molecule 7] | 0.53 fmol/cell and 0.39 fmol/cell (2×) and 0.42 fmol/cell and 0.44 fmol/cell (2×) and 1.09 fmol/cell and 0.73 fmol/cell | – | 0.63 fmol/cell and 0.55 fmol/cell and 0.68 fmol/cell and 0.50 fmol/cell and 1.05 fmol/cell and 1.36 fmol/cell | 6.54 fmol/cell and 4.00 fmol/cell | 0.47 fmol/cell and 0.39 fmol/cell and 0.51 fmol/cell and 0.46 fmol/cell and 0.75 fmol/cell and 0.83 fmol/cell | −3.71 ± 0.02 | 4.93* fmol/cell and 4.31* fmol/cell | –
NCCCN1CCN(CC(=O)[O-])CCN(CC(=O)[O-])CCN(CC(=O)[O-])CC1.[Gd+3] [Molecule 8] | 13.40 fmol/cell and 20.22 fmol/cell and 14.84 fmol/cell | – | 7.61 fmol/cell and 7.56 fmol/cell and 6.31 fmol/cell | – | 0.68 fmol/cell and 1.78 fmol/cell and 1.87 fmol/cell and 1.16 fmol/cell and 0.94 fmol/cell and 1.30 fmol/cell and 1.48 fmol/cell | −3.86 ± 0.01 | – | –
NCCCCCCN1CCN(CC(=O)[O-])CCN(CC(=O)[O-])CCN(CC(=O)[O-])CC1.[Gd+3] [Molecule 9] | 28.63 fmol/cell and 32.09 fmol/cell and 29.78 fmol/cell | – | 11.67 fmol/cell and 20.36 fmol/cell and 14.83 fmol/cell | – | 6.86 fmol/cell and 7.54 fmol/cell and 4.78 fmol/cell and 7.33 fmol/cell and 8.77 fmol/cell and 6.65 fmol/cell and 7.40 fmol/cell | −3.98 ± 0.07 | 13.02* fmol/cell and 14.46* fmol/cell and 18.05 fmol/cell and 24.04 fmol/cell | same result
NCCCCCCCCCCCCN1CCN(CC(=O)[O-])CCN(CC(=O)[O-])CCN(CC(=O)[O-])CC1.[Gd+3] [Molecule 10] | 45.53 fmol/cell and 50.10 fmol/cell and 48.08 fmol/cell | – | 14.47 fmol/cell and 26.93 fmol/cell and 18.26 fmol/cell | – | 3.88 fmol/cell and 5.08 fmol/cell and 4.54 fmol/cell | −1.63 ± 0.04 | – | –
O=C([O-])CN(CCN(CC(=O)[O-])CC(=O)[O-])CCN(CC(=O)[O-])CC(=O)[O-].[Gd+3] [Molecule 11] | 2.36 fmol/cell and 2.49 fmol/cell and 4.37 fmol/cell and 4.24 fmol/cell and 5.87 fmol/cell and 2.95 fmol/cell and 2.73 fmol/cell and 2.85 fmol/cell | – | 5.16 fmol/cell and 5.75 fmol/cell and 4.01 fmol/cell and 3.75 fmol/cell and 3.78 fmol/cell and 3.36 fmol/cell | – | 0.34 fmol/cell and 0.30 fmol/cell and 0.54 fmol/cell and 0.82 fmol/cell and 0.51 fmol/cell and 0.72 fmol/cell and 0.61 fmol/cell (2×) | −3.80 ± 0.29 | – | –
CC(O)CN1CCN(CC(=O)[O-])CCN(CC(=O)[O-])CCN(CC(=O)[O-])CC1.[Gd+3] (stereo not shown) [Molecule 13] | 1.09 fmol/cell and 1.47 fmol/cell and 1.02 fmol/cell | – | 1.36 fmol/cell and 1.84 fmol/cell and 0.82 fmol/cell and 1.59 fmol/cell and 1.47 fmol/cell | 0.53* fmol/cell and 0.55* fmol/cell | 0.51 fmol/cell and 0.42 fmol/cell and 0.61 fmol/cell | −3.59 ± 0.16 | – | –
